Results taken from patent US11053204B2, “Pyrimidinyloxy benzene derivatives as herbicides” (FMC Corporation, priority 2015, dated 2021).

Key:
Format in all cases: in vivo
[1] = test system: pigweed (Amaranthus retroflexus); assay: Test A preemergence, visual injury rating
Procedure, shortened: (§1)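 Compounds in non-phytotoxic solvent with surfactant applied as soil spray preemergence, or postemergence to plants 2-10 cm at one- to two-leaf stage, in loam/sand. After approximately 10 days in greenhouse, injury rated visually versus untreated controls, 0 (no effect) to 100 (complete control).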

kochia (Kochia scoparia) [2] = assay: Test A preemergence, visual injury rating
Procedure, shortened: as §1

[3] = test system: sedge, umbrella (small-flower umbrella sedge, Cyperus difformis); assay: Test B flooded paddy test, plant response rating; settings: 250 g ai/ha; Flood; scale of 0 to 100 where 0 is no effect and 100 is complete control; 13 to 15 days
Procedure, shortened: (§2)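 Pots were flooded to 3 cm above the soil surface at treatment, compound applied directly to the paddy water, and that depth held throughout. Plants were kept in a greenhouse for 13 to 15 days, then visually rated against untreated controls.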

rice (Oryza sativa) = assay: Test B flooded paddy test, plant response rating; settings: 250 g ai/ha; Flood; scale of 0 to 100 where 0 is no effect and 100 is complete control; 13 to 15 days
Procedure, shortened: as §2

[4] = test system: barnyardgrass (Echinochloa crus-galli); assay: Test B flooded paddy test, plant response rating; settings: 250 g ai/ha; Flood; scale of 0 to 100 where 0 is no effect and 100 is complete control; 13 to 15 days
Procedure, shortened: as §2

[5] = test system: ducksalad (Heteranthera limosa); assay: Test B flooded paddy test, plant response rating; settings: 250 g ai/ha; Flood; scale of 0 to 100 where 0 is no effect and 100 is complete control; 13 to 15 days
Procedure, shortened: as §2

kochia (Kochia scoparia) [6] = assay: Test C postemergence, plant response rating; settings: for Kochia plant response rating: scale 0 to 100 (0 no effect, 100 complete control)
Procedure, shortened: (§3)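 Visual injury score, 0 = no effect, 100 = complete control, assigned against untreated controls after 13 to 15 d in the greenhouse. Compounds were applied in a surfactant-containing non-phytotoxic solvent mix, preemergence to seeded loam/sand or silt loam soil, or postemergence to 1- to 4-leaf plants (2 to 18 cm).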

[7] = test system: morningglory (Ipomoea coccinea); assay: Test C postemergence, plant response rating; settings: for Morningglory plant response rating: scale 0 to 100 (0 no effect, 100 complete control)
Procedure, shortened: as §3

[8] = test system: chickweed (common chickweed, Stellaria media); assay: Test C postemergence, plant response rating; settings: for Chickweed plant response rating: scale 0 to 100 (0 no effect, 100 complete control)
Procedure, shortened: as §3

corn (Zea mays) = assay: Test A postemergence, visual injury rating; settings: 0 is no effect, 100 is complete control; for Corn plant response rating: 0 to 100 scale, approximately 10 days
Procedure, shortened: as §1

[9] = test system: pigweed (Amaranthus retroflexus); assay: Test A postemergence, visual injury rating; settings: 0 is no effect, 100 is complete control; for Pigweed plant response rating: 0 to 100 scale, approximately 10 days
Procedure, shortened: as §1

kochia (Kochia scoparia) [10] = assay: Test A postemergence, visual injury rating; settings: 0 is no effect, 100 is complete control; for Kochia plant response rating: 0 to 100 scale, approximately 10 days
Procedure, shortened: as §1

[11] = test system: giant foxtail (Setaria faberii); assay: Test A postemergence, visual injury rating; settings: 0 is no effect, 100 is complete control; for Foxtail, Giant plant response rating: 0 to 100 scale, approximately 10 days
Procedure, shortened: as §1

[12] = test system: blackgrass (Alopecurus myosuroides); assay: Test A postemergence, visual injury rating; settings: 0 is no effect, 100 is complete control; for Blackgrass plant response rating: 0 to 100 scale, approximately 10 days
Procedure, shortened: as §1

[13] = test system: wheat (Triticum aestivum); assay: Test A postemergence, visual injury rating; settings: 0 is no effect, 100 is complete control; for Wheat plant response rating: 0 to 100 scale, approximately 10 days
Procedure, shortened: as §1

[14] = test system: barnyardgrass (Echinochloa crus-galli); assay: Test A postemergence, visual injury rating; settings: 0 is no effect, 100 is complete control; for Barnyardgrass plant response rating: 0 to 100 scale, approximately 10 days
Procedure, shortened: as §1

[15] = test system: ragweed (common ragweed, Ambrosia elatior); assay: Test A postemergence, visual injury rating; settings: 0 is no effect, 100 is complete control; for Ragweed plant response rating: 0 to 100 scale, approximately 10 days
Procedure, shortened: as §1

[16] = test system: Italian ryegrass (Lolium multiflorum); assay: Test A postemergence, visual injury rating; settings: 0 is no effect, 100 is complete control; for Ryegrass, Italian plant response rating: 0 to 100 scale, approximately 10 days
Procedure, shortened: as §1

[17] = test system: galium (catchweed bedstraw, Galium aparine); assay: Test A postemergence, visual injury rating; settings: 0 is no effect, 100 is complete control; for Galium plant response rating: 0 to 100 scale, approximately 10 days
Procedure, shortened: as §1

[18] = 31 g ai/ha, 0 to 100 scale, 0 no effect, 100 complete control
[19] = 125 g ai/ha, 0 to 100 scale (0 no effect, 100 complete control)
[20] = 500 g ai/ha, 0 to 100 scale (0 no effect, 100 complete control)

SMILES | Plant response rating, Pigweed [1, 19] | Plant response rating, Kochia (kochia (Kochia scoparia) [2]; [19]) | Plant response rating, Sedge, Umbrella [3] | Plant response rating, Rice (rice (Oryza sativa)) | Plant response rating, Barnyardgrass [4] | Plant response rating, Ducksalad [5] | Plant response rating, Kochia (kochia (Kochia scoparia) [6]; 16 g ai/ha, scale of 0 to 100) | Plant response rating, Kochia (kochia (Kochia scoparia) [6]; 31 g ai/ha, scale 0 to 100) | Kochia plant response rating (kochia (Kochia scoparia) [6]; 62 g ai/ha) | Kochia plant response rating (kochia (Kochia scoparia) [6]; 125 g ai/ha) | Plant response rating, Morningglory ([7]; 16 g ai/ha, scale of 0 to 100) | Plant response rating, Morningglory ([7]; 31 g ai/ha, scale 0 to 100) | Morningglory plant response rating ([7]; 62 g ai/ha) | Morningglory plant response rating ([7]; 125 g ai/ha) | Plant response rating, Chickweed ([8]; 16 g ai/ha, scale of 0 to 100) | Plant response rating, Chickweed ([8]; 31 g ai/ha, scale 0 to 100) | Chickweed plant response rating ([8]; 62 g ai/ha) | Chickweed plant response rating ([8]; 125 g ai/ha) | Corn plant response rating (corn (Zea mays); 125 g ai/ha) | Pigweed plant response rating ([9]; 125 g ai/ha) | other results
O=C(CCC(F)(F)C(F)(F)F)c1c(Br)cccc1Oc1ncc(Cl)cn1 [Compound 110] | 100 | 100 | 90 | 25 | 25 | 75 | 95 | 100 | 100 | 100 | 30 | 50 | 60 | 50 | 60 | 95 | 95 | 90 | 50 | 100 | Plant response rating, Pigweed [1, 18]: 40; Plant response rating, Kochia (kochia (Kochia scoparia) [2]; [18]): 10; Corn plant response rating (corn (Zea mays); 31 g ai/ha): 20; Pigweed plant response rating ([9]; 31 g ai/ha): 90; Kochia plant response rating (kochia (Kochia scoparia) [10]; 31 g ai/ha): 100; Kochia plant response rating (kochia (Kochia scoparia) [10]; 125 g ai/ha): 100; Foxtail, Giant plant response rating ([11]; 31 g ai/ha): 30; Foxtail, Giant plant response rating ([11]; 125 g ai/ha): 90; Blackgrass plant response rating ([12]; 31 g ai/ha): 0; Blackgrass plant response rating ([12]; 125 g ai/ha): 50; Wheat plant response rating ([13]; 31 g ai/ha): 0; Wheat plant response rating ([13]; 125 g ai/ha): 20; Barnyardgrass plant response rating ([14]; 31 g ai/ha): 30; Barnyardgrass plant response rating ([14]; 125 g ai/ha): 60; Ragweed plant response rating ([15]; 31 g ai/ha): 0; Ragweed plant response rating ([15]; 125 g ai/ha): 0; Ryegrass, Italian plant response rating ([16]; 31 g ai/ha): 0; Ryegrass, Italian plant response rating ([16]; 125 g ai/ha): 20; Galium plant response rating ([17]; 31 g ai/ha): 70; Galium plant response rating ([17]; 125 g ai/ha): 100
O=C(CCCC(F)(F)F)c1c(Oc2ncc(Cl)cn2)cccc1C(F)(F)F [Compound 125] | 100 | 100 | 90 | 35 | 45 | 70 | 85 | 90 | 95 | 98 | 20 | 45 | 50 | 75 | 70 | 75 | 90 | 98 | 10 | 100 | Pigweed plant response rating [1, 20]: 100; Kochia plant response rating (kochia (Kochia scoparia) [2]; [20]): 100; Corn plant response rating (0 to 100 scale) (corn (Zea mays); 500 g ai/ha): 30; Pigweed plant response rating (0 to 100 scale) ([9]; 500 g ai/ha): 100; Kochia plant response rating (kochia (Kochia scoparia) [10]; 125 g ai/ha): 100; Kochia plant response rating (0 to 100 scale) (kochia (Kochia scoparia) [10]; 500 g ai/ha): 100; Foxtail, Giant plant response rating ([11]; 125 g ai/ha): 50; Foxtail, Giant plant response rating (0 to 100 scale) ([11]; 500 g ai/ha): 90; Blackgrass plant response rating ([12]; 125 g ai/ha): 30; Blackgrass plant response rating (0 to 100 scale) ([12]; 500 g ai/ha): 90; Wheat plant response rating ([13]; 125 g ai/ha): 20; Wheat plant response rating (0 to 100 scale) ([13]; 500 g ai/ha): 30; Barnyardgrass plant response rating ([14]; 125 g ai/ha): 30; Barnyardgrass plant response rating (0 to 100 scale) ([14]; 500 g ai/ha): 90; Ragweed plant response rating ([15]; 125 g ai/ha): 30; Ragweed plant response rating (0 to 100 scale) ([15]; 500 g ai/ha): 40; Ryegrass, Italian plant response rating ([16]; 125 g ai/ha): 20; Ryegrass, Italian plant response rating (0 to 100 scale) ([16]; 500 g ai/ha): 90; Galium plant response rating ([17]; 125 g ai/ha): 100; Galium plant response rating (0 to 100 scale) ([17]; 500 g ai/ha): 100
